Assay results from patent US5728815A, “Bone and prostate-derived protein factors affecting prostate cancer growth, differentiation, and metastasis” (priority 1994, dated 1998).
One block for each compound: values may come before it.

Key:
[1] = test system: PSA mRNA in parental LNCaP cells; experiment: PSA gene expression, Northern analysis of PSA mRNA; assay type: cell-based, human; conditions: for Relative PSA mRNA level: 48 h, control defined as 1.0; for steady-state levels of PSA mRNA: parental LNCaP cells, result in words
Experimental: FIG. 6A. The effect of PSA gene expression in parental LNCaP cells treated with a variety of growth factors. The parental LNCaP cells were incubated with agents as indicated (control cells were incubated with T medium containing 2% TCM). Forty-eight hours after treatment, total cellular RNA was prepared and 20 μg of total cellular RNA was subjected to Northern analysis. Relative PSA mRNA levels (in parenthesis) were determined by densitometrical quantification, and the control is defined as 1.0; (A) TGF-α 100 (0.98); TGF-α 10 (1.01); TGF-α 1 (1.15); bFGF 100 (1.22); bFGF 10 (1.04); bFGF 1 (0.97); TGF-β 0.01 (0.72); TGF-β 0.1 (0.84); TGF-β 1 (0.53); NGF 1 (1.13); NGF 100 (1.08),
FIG. 6B. The effect of PSA gene expression in parental LNCaP cells treated with a neuropeptide and a variety of α1 and β2-adrenergic agonists. I, bombesin 100 (0.62); bombesin 10 (0.89); II. isoproterenol 100 (0.51); isoproterenol 10 (1.11); isoproterenol 1 (1.07); III. dibutyryl cAMP 0.01 (1.09); dibutyryl cAMP 0.1 (1.11); dibutyryl cAMP 1.0 (1.23); IV. phenylephrine 1 (1.10); phenylephrine 10 (1.08); phenylephrine 100 (1.14).
Total cellular RNA was prepared from frozen tissues by the 4M guanidinium thiocyanate extraction method (Chomcjymski & Sacchi, 1987). Typical yields of total cellular RNA were about 300 μg/200 mg tissue as quantified spectrophotometrically using 40 μg RNA/A260 unit. RNA was denatured in 50% formamide/18% formaldehyde at 55° C. and fractionated by electrophoresis in a 0.9% denaturing formaldehyde agarose gel. Samples were transferred onto a Zetaprobe membrane (Bio-Rad) by capillary method, and the membrane was then baked for 2 hours at 80° C. The membrane was then prehybridized in the presence of 1M NaCl, 10% dextran sulfate, 1% SDS, and 200 μg/ml salmon sperm DNA for at least 2 hours at 65° C. Hybridization was carried out at 65° C. overnight with a random-primer-labeled probe as indicated. The PSA cDNA, and sequence specific hGK-1 and PSA oligonucleotide probes were obtained from Dr. D. Tindall (Mayo Clinic, Rochester, Minn.) (Lundwall & Lilja, 1987). Finally, the membrane was washed under high stringency conditions (0.5×SSC, 1% SDS at 65° C.). Autoradiograms were prepared by exposing Kodak X-Omat AR film to the membrane at -80° C. with intensifying screens.

[2] = prevents clinical use in human treatment; cited from earlier work
prostate tumor cell = conditions: both in vitro and in vivo; cited from earlier work

Relative PSA mRNA level ([1]; concentration 0.01 (unit not given)): 1.09
Relative PSA mRNA level ([1]; concentration 0.1 (unit not given)): 1.11
Relative PSA mRNA level ([1]; concentration 1.0 (unit not given)): 1.23
Compound: CCCC(=O)Nc1ncnc2c1ncn2[C@@H]1O[C@@H]2COP(=O)(O)O[C@H]2[C@H]1OC(=O)CCC [dibutyryl cAMP]
steady-state levels of PSA mRNA [1]: no apparent increases

Compound: Cc1ccc(C(=O)Nc2ccc(S(=O)(=O)O)c3cc(S(=O)(=O)O)cc(S(=O)(=O)O)c23)cc1NC(=O)c1cccc(NC(=O)Nc2cccc(C(=O)Nc3cc(C(=O)Nc4ccc(S(=O)(=O)O)c5cc(S(=O)(=O)O)cc(S(=O)(=O)O)c45)ccc3C)c2)c1 [suramin]
toxicity in vivo [2]: extreme toxicity
prostate tumor cell growth (prostate tumor cell): inhibit prostate tumor cell growth

Compound: CC(C)NCC(O)c1ccc(O)c(O)c1 (centres unmarked) [isoproterenol]
Relative PSA mRNA level ([1]; concentration 1 (unit not given)): 1.07
Relative PSA mRNA level ([1]; concentration 10 (unit not given)): 1.11
Relative PSA mRNA level ([1]; concentration 100 (unit not given)): 0.51
steady-state levels of PSA mRNA [1]: no apparent increases

Compound: CNC[C@H](O)c1cccc(O)c1 [phenylephrine]
steady-state levels of PSA mRNA [1]: no apparent increases
